Laboratory results: patent publication US11174267B2, “Spiroindolinones and therapeutic uses thereof” (The Regents of the University of California, priority 2015, dated 2021)
Where two headings read alike, the source gives them in different places.

How the values were obtained:
[1] = system: susceptible strain (HLY4123) of C. albicans; test: Dose-response with fluconazole (0.25 μg/mL) against susceptible strain; assay type: cell-based, Candida albicans; details: Candida albicans, with fluconazole 0.25 μg/mL; strain HLY4123
Experimental: (§1) C. albicans was grown in SC medium overnight and then diluted to an effective OD600 of 0.0625. Serial ten-fold dilutions of the test compounds (0.15-1500 μM) were prepared in DMSO in 1.5 mL Eppendorf tubes. […] The plates were incubated in a rotary shaker/incubator at 30° C. for 16 h. The contents of each well was resuspended with a micropipettor and a 20 μL aliquot was added to a polystyrene cuvette and diluted with 680 μL of deionized water. The suspension was triturated again immediately before measuring the absorbance at 600 nm (OD600) for cell densities. EC50 values were determined by fitting to the Hill equation using the Excel-based tool ED50PLUS v1.0 (Mario H. Vargas) or using Mathematica. Similar procedures were used for Candida glabrata and Cryptococcus neoformans.

[2] = system: Candida glabrata; test: EC50 in combination with fluconazole, Candida glabrata; assay type: cell-based; details: [fluconazole] = 128 μg/mL
From the text: (§2) Strains and growth condition. The wild-type Candida albicans strains used were SC5314 and CaSS1. Cdr1 heterozygous were from Merck Sharp & Dohme Corp. Double Barcoded (DBC) library of heterozygous Candida albicans mutants (version 2013A). Cdr1 deficient mutant was obtained by counterselection of the GRACE library strain on 5-Fluoroorotic Acid (5-FOA) containing plate. Clinical isolated resistant C. albicans were from Dr. David Rogers. Cryptococcus neoformans var. grubii H99 (ATCC 208821) and Candida glabrata BG2, a fluconazole-resistant clinical isolate, were used. Yeast strains were cultured at 30° C. in synthetic complete (SC) medium containing 2% glucose.
as §1
(§3) Because fungal drug-efflux ABC transporters are conserved, Cdr1 inhibitors that target the conserved regions of the pumps are expected to inhibit the drug efflux pumps in all fungi including C. albicans. […] Therefore, those spiroindolinones are candidates for combination antifungal therapy with azoles against invasive infections of not only C. albicans, but also other pathogenic fungi.

[3] = system: NIH 3T3 cells; test: Cytotoxicity, LDH assay; assay type: cell-based; details: concentrations up to 1.5 mM
Experimental: The cytotoxicity of spiroindoline Compounds 1, 8 and 25 were tested against NIH 3T3 cells at concentrations up to 1.5 mM (FIG. 13) using an LDH assay.

[4] = system: Resistant Candida albicans (clinical isolate-45); test: EC50 in combination with fluconazole, resistant C. albicans; assay type: cell-based
[5] = system: C. albicans; test: Drug susceptibility assay in combination with azole antifungals and other Cdr1/Mdr1 substrates; assay type: cell-based, Candida albicans; details: for EC50 / MIC50: Candida albicans
Experimental: Drug susceptibility assay. All the assays were carried out with SC medium in 24-well plates. […] Plates were incubated at 30° C. for 15 h. Cell growth was measured by reading absorbance at 600 nm. […] EC50 values were calculated by nonlinear regression curve fit of log (concentration) versus the % cell growth.
Compound 1 was also studied to determine if it can synergize with all azole antifungals and non-azole drugs that are known Cdr1 substrates. […] The effective concentrations of the spiroindolinone used are at nM levels, much lower than that of substrates (azoles for example), therefore ruling out competitive inhibition as the mechanism. […] With further study it is possible to determine drug-target interaction sites on Cdr1.

[6] = system: Cryptococcus neoformans; test: EC50 in combination with fluconazole, Cryptococcus neoformans; assay type: cell-based; details: [fluconazole] = 4 μg/mL
From the text: as §2, §1, §3

[7] = system: C. albicans strain HLY4123 and clinical isolates 26 and 45; test: Checkerboard assay (MIC90, FIC index); assay type: cell-based, Candida albicans; details: for MIC90: Candida albicans; for FICI: Compound 25 + fluconazole
Experimental: Checkerboard assays were carried out using four 24-well plates. The results on each plate were normalized by duplication of one row and one column with a row and column on another plate. C. albicans was grown in SC medium overnight and then diluted to an effective OD600 of 0.0625. Serial ten-fold dilutions of the test compounds (150 mM) were prepared in DMSO in 1.5 mL Eppendorf tubes. […] Concentrations of compound in rows 1-11 varied from 300 μM to 0.0003 nM; the last row 12 contained no compound. […] The plates were incubated in a rotary shaker/incubator at 30° C. for 16 h. The contents of each well was resuspended with a micropipettor and a 20 μL aliquot was added to a polystyrene cuvette and diluted with 680 μL of deionized water. The suspension was triturated again immediately before measuring the absorbance at 600 nm. The MIC90 values were determined as the lowest concentrations of the drugs (alone or in combination) that inhibited fungal growth by 90% compared with that of the drug-free wells.
In all of the strains tested, the FIC index was below 0.5, fitting the classical definition of synergy.

[8] = system: resistant clinical isolates of C. albicans; test: Screen of resistant clinical isolates, single dose, broth microdilution (growth OD600); assay type: cell-based, Candida albicans; details: compound 25 3 μM + fluconazole 64 μg/mL, 16 h
From the text: (§4) (Flowers, S. A., et al. Eukaryotic Cell 2012, 11, 1289-1299.) The strains grow at dramatically different rates.

[9] = system: resistant clinical isolates of C. albicans; test: EC50 against selected resistant clinical isolates with fluconazole; assay type: cell-based; details: Candida albicans, fluconazole 64 μg/mL
Experimental: as §1, §4

[10] = MDR1, with clotrimazole 0.221 μg/mL
[11] = MDR1, with fluconazole 0.500 μg/mL
[12] = MDR1, with itraconazole 0.004 μg/mL
[13] = MDR1, with ketoconazole 0.289 μg/mL
[14] = MDR1, with miconazole 0.031 μg/mL
[15] = MDR1, with vorizonazole 0.006 μg/mL

## Cc1c(Cl)ccc2c1NC(=O)[C@]21N[C@H](Cc2ccccc2)[C@@H]2C(=O)N(c3ccc(F)cc3)C(=O)[C@@H]21 (racemic) [Compound 1, (±)-(3R,3′R,3a′R,6a'S)-3′-benzyl-6-chloro-5′-(4-fluorophenyl)-7-methyl-2′,3′,3a′,6a′-tetrahydro-4′H-spiro[indoline-3,1′-pyrrolo[3,4-c]pyrrole]-2,4′,6′(5′H)-trione]
[1]
  EC50: 11 nM
[2]
  EC50: 640 nM
[3]
  cytotoxicity: weak to negligible cytotoxicity
[4]; C. albicans clinical isolate-45; [fluconazole] = 64 μg/mL; read-out: EC50 Resistant Candida albicans
  EC50: 440 nM
[5]; [10]
  EC50: 500 nM
[5]; [11]
  EC50: 100 nM
[5]; [12]
  EC50: 700 nM
[5]; [13]
  EC50: 830 nM
[5]; [14]
  EC50: 990 nM
[5]; [15]
  EC50: 310 nM
[5]; with clotrimazole 0.221 μg/mL
  MIC50: 3.7 µM
[5]; with fluconazole 0.500 μg/mL
  MIC50: 1.3 µM
[5]; with itraconazole 0.004 μg/mL
  MIC50: 1.7 µM
[5]; with ketoconazole 0.289 μg/mL
  MIC50: 7.4 µM
[5]; with miconazole 0.031 μg/mL
  MIC50: 3.6 µM
[5]; with vorizonazole 0.006 μg/mL
  MIC50: 4.5 µM
[5]; all azole antifungals tested
  susceptibility of C. albicans to azole antifungals: increase the susceptibility
[5]; cycloheximide, substrate of the Cdr1 efflux pump
  growth inhibitory activity of cycloheximide: enhance the growth inhibitory activity
[5]; thiolutin, substrate of Mdr1
  growth inhibitory activity of thiolutin: did not enhance the growth inhibitory activity
[6]
  EC50: > 30000 nM

## Cc1c(Cl)ccc2c1NC(=O)[C@@]21[C@H]2C(=O)N(c3ccccc3)C(=O)[C@H]2[C@H]2CN(C(=O)OCc3ccccc3)CCN21 (racemic) [Compound 25, (±)-benzyl (3R,3a′R,3b'S,9a'S)-6-chloro-7-methyl-1′,2,3′-trioxo-2′-phenyl-2′,3′,3a′,3b′,4′,6′,7′,9a′-octahydrospiro[indoline-3,9′-pyrrolo[3′,4′:3,4]pyrrolo[1,2-a]pyrazine]-5′(1′H)-carboxylate]
[7]; read-out: MICcpd (+Flc) (MIC90), clinical isolate 26, with fluconazole
  MIC90: 0.3 µM
[7]; read-out: MICcpd (+Flc) (MIC90), clinical isolate 45, with fluconazole
  MIC90: 0.03 µM
[7]; read-out: MICcpd (+Flc) (MIC90), strain HLY4123, with fluconazole
  MIC90: 0.03 µM
[7]; read-out: MICcpd (MIC90), clinical isolate 26, compound alone
  MIC90: > 30 µM
[7]; read-out: MICcpd (MIC90), clinical isolate 45, compound alone
  MIC90: > 30 µM
[7]; read-out: MICcpd (MIC90), strain HLY4123, compound alone
  MIC90: > 300 µM
[7]; all of the strains tested, with fluconazole
  FIC index: below 0.5
[7]; alone, at the solubility limit, any of the strains
  toxicity of compound alone against the strains: did not have measurable toxicity
[7]; clinical isolate 26
  FICI: 0.14
[7]; clinical isolate 45
  FICI: 0.13
[7]; strain HLY4123
  FICI: 0.25
[1]
  EC50: 0.3 nM
[2]
  EC50: > 30000 nM
[4]; read-out: EC50 Resistant Candida albicans; C. albicans clinical isolate-45; [fluconazole] = 64 μg/mL
  EC50: 400 nM
[5]; [10]
  EC50: 150 nM
[5]; [11]
  EC50: 11 nM
[5]; MDR1, with isavuconazole 0.0006 μg/mL
  EC50: 4 nM
[5]; [12]
  EC50: 190 nM
[5]; [13]
  EC50: 14 nM
[5]; [14]
  EC50: 240 nM
[5]; [15]
  EC50: 62 nM
[5]; with clotrimazole 0.221 μg/mL
  MIC50: 4.1 µM
[5]; with fluconazole 0.500 μg/mL
  MIC50: 0.84 µM
[5]; with isavuconazole 0.0006 μg/mL
  MIC50: 0.11 µM
[5]; with itraconazole 0.004 μg/mL
  MIC50: 2.5 µM
[5]; with ketoconazole 0.289 μg/mL
  MIC50: 2.3 µM
[5]; with miconazole 0.031 μg/mL
  MIC50: 25 µM
[5]; with vorizonazole 0.006 μg/mL
  MIC50: 1.9 µM
[8]; clinical isolate 15
  Growth (OD600) +Cpd25 + Fluc: 2.64
[8]; clinical isolate 16
  Growth (OD600) +Cpd25 + Fluc: 0.43
[8]; clinical isolate 17
  Growth (OD600) +Cpd25 + Fluc: 0.79
[8]; clinical isolate 21
  Growth (OD600) +Cpd25 + Fluc: 2.02
[8]; clinical isolate 22
  Growth (OD600) +Cpd25 + Fluc: 1.28
[8]; clinical isolate 23
  Growth (OD600) +Cpd25 + Fluc: 0.60
[8]; clinical isolate 25
  Growth (OD600) +Cpd25 + Fluc: 1.59
[8]; clinical isolate 26
  Growth (OD600) +Cpd25 + Fluc: 0.83
[8]; clinical isolate 30
  Growth (OD600) +Cpd25 + Fluc: 5.38
[8]; clinical isolate 33
  Growth (OD600) +Cpd25 + Fluc: 0.88
[8]; clinical isolate 36
  Growth (OD600) +Cpd25 + Fluc: 1.07
[8]; clinical isolate 41
  Growth (OD600) +Cpd25 + Fluc: 6.52
[8]; clinical isolate 45
  Growth (OD600) +Cpd25 + Fluc: 1.03
[8]; clinical isolate 49
  Growth (OD600) +Cpd25 + Fluc: 11.29
[9]; read-out: Potency Cpd 25 EC50, clinical isolate 17
  EC50: 5 nM
[9]; read-out: Potency Cpd 25 EC50, clinical isolate 23
  EC50: 53 nM
[9]; read-out: Potency Cpd 25 EC50, clinical isolate 26
  EC50: 2 nM
[9]; read-out: Potency Cpd 25 EC50, clinical isolate 33
  EC50: 11 nM
[9]; read-out: Potency Cpd 25 EC50, clinical isolate 36
  EC50: 5 nM
[9]; read-out: Potency Cpd 25 EC50, clinical isolate 45
  EC50: 16 nM
[6]
  EC50: 192 nM
